Patent US10996205B2, “Stress biomarkers and related non-invasive detection methods” (ARIZONA BOARD OF REGENTS ON BEHALF OF THE UNIVERSITY OF …, priority 2015, dated 2021)

Test: Stability of cortisol in human eccrine sweat at room temperature
Description: To test the stability of cortisol in human eccrine sweat in order to improve sweat collection method and procedures, aliquots of the same sweat samples were left at room temperature for a duration of 3 hours, with each aliquots analyzed every 30 minutes in first hour and every hour afterwards.
Spiked human eccrine sweat samples were tested over a period of 3 hours at room temperature.

- cortisol loss in spiked human eccrine sweat (period of 3 hours at room temperature): No measurable cortisol loss
- Concentration (spiked sweat, 0 minutes at room temperature): 29.191 ng/mL
- Concentration (spiked sweat, 30 minutes at room temperature): 36.802 ng/mL
- Concentration (spiked sweat, 1 hour at room temperature): 30.807 ng/mL
- Concentration (spiked sweat, 2 hours at room temperature): 30.228 ng/mL
- Concentration (spiked sweat, 3 hours at room temperature): 29.515 ng/mL
- Concentration (unspiked human eccrine sweat): 3.488 ng/mL
SMILES: C[C@]12CCC(=O)C=C1CC[C@@H]1[C@@H]2[C@@H](O)C[C@@]2(C)[C@H]1CC[C@]2(O)C(=O)CO [cortisol, 4-PREGNEN-11β, 17, 21-TRIOL-3, 20-DIONE]
